A short description of series [1]: Acute toxicity in rabbit, cutaneous. The following applies: in vivo, topical or ocular, read-out: NOEL (No Observable Effect Level).
The subject of series [2] is EAE (experimental autoimmune encephalomyelitis) model. Nature of the series: EAE (experimental autoimmune encephalomyelitis) rat model, clinical score. It counts as in vivo, Lewis rats. The following applies: for onset is delayed / recovery starts earlier: Figure 2, versus control.
Another series in a line: Acute toxicity in rat. Conditions: in vivo.
Another series concerns mice. Put plainly: Chronic toxicity in mice, up to 270 days. It counts as in vivo. The following applies: tested up to 270 days on mice.

Regarding `Cc1cc2nc3c4ccccc4n(CCN(C)C)c3nc2cc1C` [B-220], the NOAEL in series [1] was found to be 200 mg/kg; in the series “Acute toxicity in rat” (intravenous, read-out: NOEL (No Observable Effect Level)) it was 12.5 mg/kg. Also, the “reduces the CNS symptoms” value in series [2] (Figure 1, 6 mg/animal daily, clinical score scale 0-5, versus negative control) is 2/3. Further, the values for the onset is delayed in series [2] (6 mg/animal) and in series [2] (12 mg/animal) were ~2 days and ~4 days, respectively. Moreover, the recovery starts earlier in series [2] (6 mg/animal) is given as ~2 days; in series [2] (12 mg/animal) it was ~3 days. The figures for the median lethal dose (LD50) in the series “Acute toxicity in rat” (iv) and in “Acute toxicity in rat” (po) were > 100 mg/kg and > 800 mg/kg, respectively. Moreover, the chronic toxicity result in the series on mice is “has not induced toxicity”.
